Consider four compounds from patent publication US6903081B2, “Phosphoramidates and methods therefor” (Purdue Research Foundation, priority 2000, dated 2005).

pIC50, pKd: −log10 of the molar value. Entries after “also recorded” stand apart in the source; their conditions may differ. Like-named read-outs stand apart in the source and are kept apart here.

One series has as its system L1210 leukemia cells. Description: Growth inhibition in L1210 mouse leukemia cells. It is filed as cell-based. As to conditions: for pIC50: Mus musculus. Here is the method: In an alternate embodiment of the invention, the analogous thymidine compounds were prepared (i.e., 3 where F═CH3). The thymidine phosphoramidate was activated by reduction of the nitrofuryl group with sodium dithionite in aqueous buffer/acetonitrile at 37° C., and the reaction was monitored by ^31P nmr. Within ten minutes the resonance for the phosphoramidate anion had disappeared and a new peak corresponding to thymidine-5′-phosphate appeared as the exclusive phosphorus-containing product by ^31P nmr. Nucleoside phosphoramidate 3 was then evaluated for its ability to inhibit proliferation of L1210 leukemia cells in vitro. Cells were exposed to drug for 2, 8, 24, and 48 hours; the results are summarized below:
Stock solutions of drugs were prepared in absolute ethanol, and serial dilutions of drug were prepared in ethanol. L1210 cells were suspended in Fisher's medium supplemented with 10% horse serum, 1% glutamine, and 1% antibiotic-antimycotic solution to give 10 mL volumes of cell suspension at a final density of 3-6×10^4 cells/mL. Appropriate volumes of the drug solution were transferred to the cell suspensions, and incubation was continued for 2, 8, 24, or 48 hours. The cells were spun down, resuspended in fresh drug-free medium and returned to the incubator. Final cell counts were determined 48 hours after the start of drug treatment. The data were analyzed by sigmoidal curve fit of cell count vs. Log (drug concentration) and the results expressed as the IC50 (the drug concentration that inhibits cell growth to 50% of control value).

The next series deals with L1210 cells. Description: Tritium assay in L1210 cells. As to conditions: Mus musculus. It is filed as cell-based. Here is the method: (§1) Stock solutions of drugs were prepared in absolute ethanol. L1210 cells were suspended in fisher's medium, LM and LM (TK-) cells were suspended in minimum essential medium to give a final density of 11.24×10^6 cells/mL. Aliquots ([…]) of the cell suspension were placed in ependorf tubes, followed by addition of 5 mL of drug solution and incubated at 37° C. for 2 hours. Tritium release reaction was started by the addition of […] of serum free media containing 1 mCi [5-^3H]dCyt in a 0.5 mM dCyt solution. Allowed reaction to incubate for 60 min in a shaking water bath at 37° C. Reaction was terminated by transferring 100 mL of the reaction mixture to ependorf tubes containing 100 mL of a 20% mixture of activated charcoal suspension in 4% aqueous perchloric acid. Tubes were vigorously vortexed, then centrifuged in a microfuge. Radioactivity of […] of the supernatant was measured using a scintillation spectrometer. The data were analyzed by sigmoidal curve fit of CMP vs. Log (drug concentration) and the results expressed as the IC50 (the drug concentration that inhibits cell growth to 50% of control value).

The next series deals with LM cells. Kind of series: Tritium assay in LM cells. The format is cell-based. The settings on record: read-out: IC50 tritium assay. Here is the method:
as §1

For another series, the system named is LM(TK-) cells. Description: Tritium assay in LM(TK-) cells. It is filed as cell-based. The settings on record: L-M(TK-), read-out: IC50 tritium assay. Here is the method:
as §1

The target of a further series is pp60src SH2 domain (Homo sapiens, UniProt P12931). Kind of series: Binding to pp60src SH2 domain. As to conditions: read-out: binding affinity. An excerpt:
An alternate embodiment of the invention is illustrated in scheme 3: [drawing 3] This reaction is directed toward the synthesis of phosphoramidate 11A and involved the preparation of the nitrofuryl phosphoramidate of p-hydroxybenzoic acid 9A and coupling of this product with the benzyl amine 10A, prepared from 5-acetylsalicylamide. Briefly, to synthesize the benzoic acid derivative 9A, p-Hydroxybenzoic acid was converted to its allyl ester 6A by reaction of the potassium salt with allylbromide. The allyl ester was reacted with POCl3 and the intermediate phosphoryl dichloride was treated with methyl chlorobutylamine in the presence of triethylamine to give phosphoramidic chloride 7A. Reaction of 7A with the lithium salt of 5-nitro-2-hydroxymethylfuran afforded the phosphoramidate 8A. Deprotection of the allyl ester was accomplished by reaction with Pd(Ph3P)4/sodium p-toluenesulfinate to give the benzoic acid phosphoramidate 9A. Reaction of 9A with isobutyl chloroformate in the presence of triethylamine, followed by addition of benzylamine 10A afforded the desired peptidomimetic prodrug 11A. In order to confirm that the activation chemistry of 11A to 12A would proceed as expected, 11A was reduced with sodium dithionite in ethanol/aqueous buffer and the reaction monitored by ^31P nmr. […]

The nature of series [1]: Chemical activation by sodium dithionite reduction monitored by 31P nmr. The format is physicochemical. The settings on record: sodium dithionite in aqueous buffer/acetonitrile at 37° C.

pp60src SH2 domain, sequence (P12931 151-248 limits assumed): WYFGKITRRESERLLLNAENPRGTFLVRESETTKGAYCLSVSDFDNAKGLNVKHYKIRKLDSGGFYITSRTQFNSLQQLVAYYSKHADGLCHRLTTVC

As to `CN(CCCCCl)P(=O)(OCc1ccc([N+](=O)[O-])o1)OC[C@H]1O[C@@H](n2cc(F)c(=O)[nH]c2=O)CC1O` (stereo partly shown) [Compound 3, 5-Fluoro-2′-deoxyuridyl 5-nitrofurfuryl N-methyl-N-(4-chlorobutyl)phosphoramidate], in the series with L1210 leukemia cells, the “inhibition of L1210 cell proliferation, in words” value is recorded as “significantly more potent than the analogous bromoethyl compound; also recorded: highly potent inhibitors”. In addition, the pIC50 in the series with L1210 leukemia cells (L1210, 2 h, read-out: L1210 IC50, drug exposure 2 hr) is 6.95; in the series with L1210 leukemia cells (L1210, 2 h, read-out: L1210 IC50, drug exposure 2 hr, comparison of compound 5 with compound 3), 6.94; in the series on L1210 leukemia cells (L1210, 8 h, read-out: L1210 IC50, drug exposure 8 hr) it was 7.40; in the series on L1210 leukemia cells (L1210, 8 h, read-out: L1210 IC50, drug exposure 8 hr, comparison of compound 5 with compound 3), 7.33; in the series on L1210 leukemia cells (L1210, 24 h, read-out: L1210 IC50, drug exposure 24 hr), 8.22; in the series with L1210 leukemia cells (L1210, 24 h, read-out: L1210 IC50, drug exposure 24 hr, comparison of compound 5 with compound 3), 8.14. The pIC50 is 8.64 in the series with L1210 leukemia cells (L1210, 48 h, drug exposure 48 h, final cell counts 48 hours after start of drug treatment); 8.70 with L1210 leukemia cells (L1210, 48 h, read-out: L1210 IC50, drug exposure 48 hr); 8.64 in the series on L1210 leukemia cells (L1210, 48 h, read-out: L1210 IC50, drug exposure 48 hr, comparison of compound 5 with compound 3); 6.94 with L1210 leukemia cells (L1210, drug exposure 2 h, final cell counts 48 hours after start of drug treatment); 7.33 in the series with L1210 leukemia cells (L1210, drug exposure 8 h, final cell counts 48 hours after start of drug treatment); 8.14 in the series on L1210 leukemia cells (L1210, drug exposure 24 h, final cell counts 48 hours after start of drug treatment). The pIC50 was 7.34 in the series with L1210 cells (L1210, read-out: IC50 tritium assay); 6.15 with LM cells; 5.89 in the series with LM(TK-) cells.

Turning to `CC(NC(=O)c1ccc(OP(=O)(O)O)cc1)c1ccc(OCC2CCCCC2)c(C(N)=O)c1` (stereo not shown) [Compound 12A], the pKd on pp60src SH2 domain was 5.25.

As to `O=c1[nH]c(=O)n([C@H]2C[C@H](O)[C@@H](CO)O2)cc1F` [FUdR, 5-Fluoro-2′-deoxyuridine, reference compound], the pIC50 with L1210 leukemia cells (L1210, 48 h, drug exposure 48 h, final cell counts 48 hours after start of drug treatment, read-out: IC50) is 9.19; in the series on L1210 leukemia cells (L1210, drug exposure 2 h, final cell counts 48 hours after start of drug treatment, read-out: IC50) it was 7.35; with L1210 leukemia cells (L1210, drug exposure 8 h, final cell counts 48 hours after start of drug treatment, read-out: IC50), 7.64; in the series with L1210 leukemia cells (L1210, drug exposure 24 h, final cell counts 48 hours after start of drug treatment, read-out: IC50), 8.39; in the series with L1210 cells (L1210, drug 2 hours at 37° C., then [5-3H]dCyt 60 min, read-out: IC50 tritium assay), 8.10; in the series with LM cells (LM, drug 2 hours at 37° C., then [5-3H]dCyt 60 min) it was 7.23. Also, the pIC50 in the series with LM(TK-) cells (LM(TK-), drug 2 hours at 37° C., then [5-3H]dCyt 60 min) was 5.44.

As for `Cc1cn([C@H]2C[C@H](O)[C@@H](COP(N)(=O)O)O2)c(=O)[nH]c1=O` [thymidine phosphoramidate], the “time until the phosphoramidate anion resonance had disappeared (thymidine-5′-phosphate exclusive product)” value in series [1] was “ten”.
